According to patent US20040248300A1, “Enhanced gene expression using vectors” (priority 2001, published 2004):

Tested on: human foetal foreskin fibroblasts (HFFF2)
Assay: Responsiveness of the in1360 genome to Trichostatin A: β-galactosidase activity in infected HFFF2 cells
Assay type: cell-based
Description: Trichostatin A (TSA) is an agent that inhibits deacetylases. When it is added to cells, histones and other proteins involved in transcriptions become hyperacetylated, because they are not deacetylated. This frequently results in activation of gene expression. In the case of HSV-1 mutants, the genome is not responsive to TSA once the quiescent state has been established. Monolayers of HFFF2 cells were infected with in1360 and maintained at 38.5° C. At 8 days after infection, cells were either untreated or treated with 660 nM TSA. After maintenance at 38.5° C. for a further 2 days, extracts were made and β-galactosidase activities were measured. The extracts from untreated cells gave a value of 121 units (range 113-129), whereas extracts from TSA-treated cells gave a value of 806 unites (range 739-873), a stimulation of 6.7-fold.

Structure (SMILES): CC(/C=C/C(=O)NO)=C\[C@@H](C)C(=O)c1ccc(N(C)C)cc1 [TSA, Trichostatin A]
- β-galactosidase activity, extracts from TSA-treated cells (660 nM TSA added 8 days after infection, a further 2 days at 38.5° C., range 739-873): 806 unites
- effect of TSA on X-gal stained cells (in words) (660 nM TSA for 2 days, 10 days after infection): increased the number of positive cells and the intensity of straining
- stimulation of β-galactosidase activity by TSA (660 nM TSA versus untreated): 6.7 fold
